According to US10729749B2, “Neurodegenerative disorders” (priority 2014, dated 2020):
Ends that are not written are not given here.

tested on: PC12 cells; test: Value coefficient (AChE release vs PC12 cell viability) and filter selection; type: cell-based; details: Aβ 5 μM + small peptide 0.5 μM; 1.0 to 1.1 = protective, control = 1
Text: AChE release vs PC12 cell viability (for which there is a significant negative correlation); • 2. In silico binding to the allosteric site of the α7 nicotinic-receptor; • 3. Calcium influx into PC12 cells; and • 4. Peptide size.

Substance | Value AChE/Viability
EFHRWSSYM [NBP-905] | 1.09
FHRWSSYMVHWK [NBP-1206] | 1.04
HRWSSY [NBP-607] | 1.03
HRWSSYMVHWKA [NBP-1207] | 1.08
HRWSSYMVHWKAE [NBP-1307] | 1.02
HWKAEFHR [NBP-801] | 1.06
HWKAEFHRWSSY [NBP-1201] | 1.02
KAEFH [NBP-503] | 1.07
KAEFHRWSSYMV [NBP-1203] | 1.04
KAEFHRWSSYMVH [NBP-1303] | 1.06
MVHWKAEFHRWS [NBP-1213] | 1.03
MVHWKAEFHRWSSY [NBP-1413] | 1.05
RWSSY [NBP-508] | 1.09
RWSSYMVHWKA [NBP-1108] | 1.06
SSYMV [NBP-510] | 1.03
SSYMVHW [NBP-710, SSYMVHW] | 1
SSYMVHWK [NBP-810] | 1.01
SSYMVHWKAEFH [NBP-1210] | 1.01
SSYMVHWKAEFHRW [NBP-1410] | 1

same assay, conditions: T30 5 μM + small peptide 0.5 μM; 1.0 to 1.1 = protective, control = 1

Substance | Value AChE/Viability
AEFHRWSS [NBP-804] | 1
AEFHRWSSYMV [NBP-1104] | 1
EFHRWSS [NBP-705, EFHRWSS] | 1.03
EFHRWSSYMVHW [NBP-1205] | 1.07
EFHRWSSYMVHWKA [NBP-1405] | 1.09
FHRWSS [NBP-606] | 1.05
FHRWSSYMVHWKAE [NBP-1406] | 1.07
HRWSSYM [NBP-707] | 1
HRWSSYMVHWK [NBP-1107] | 1
HRWSSYMVHWKAEF [NBP-1407] | 1.04
HWKAEF [NBP-601, HWKAEF] | 1.08
HWKAEFHRWSS [NBP-1101] | 1
MVHWKA [NBP-613, MVHWKA] | 1
MVHWKAEFHR [NBP-1013] | 1.08
MVHWKAEFHRWSS [NBP-1313] | 1.05
RWSSYMV [NBP-708, RWSSYMV] | 1
RWSSYMVHWKAEFH [NBP-1408] | 1
SSYMVHWKAEFHRW [NBP-1410] | 1

same assay, conditions: filters: value coefficient, in silico binding, calcium influx, peptide size

Substance | neuroprotective agent against T30 when all four filters are taken into consideration | neuroprotective agent against Aβ when all four filters are taken into consideration
AEFHRWSS [NBP-804] | neuroprotective agents against T30 | 
EFHRWSS [NBP-705, EFHRWSS] | neuroprotective agents against T30 | 
HWKAEF [NBP-601, HWKAEF] | neuroprotective agents against T30 | 
MVHWKA [NBP-613, MVHWKA] | neuroprotective agents against T30 | 
RWSSYMV [NBP-708, RWSSYMV] | neuroprotective agents against T30 | 
SSYMVHW [NBP-710, SSYMVHW] |  | agents against Aβ

tested on: not listed separately; test: Cell viability assay (Cell Counting Kit-8); type: cell-based; details: Aβ 5 μM + small peptide 0.5 μM; % PC12 cell viability compared to untreated control;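 also: PC12 cells in 96-well plates, WST-8 turned into formazan by cellular dehydrogenases, absorbance read at 450 nm after 2 h with the reagent, signal proportional to living cell number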
Text: A Cell Counting Kit-8 (CCK-8) was used as an improvement of the SRB technique used before. By utilizing the highly water-soluble tetrazolium salt WST-8, CCK-8 produces a water-soluble formazan dye upon reduction in the presence of an electron carrier. WST-8 is reduced by dehydrogenases in cells to give a yellow colored product (formazan), which is soluble in the tissue culture medium. The amount of the formazan dye generated by the activity of dehydrogenases in cells is directly proportional to the number of living cells. PC12 cells are plated in 200 μl of complete growth medium the day before the experiment in 96 well plates. […] Subsequently, 100 μl of growth medium is removed and 10 μl of CCK-8 (Cell Counting Kit-8) solution is added. The plate is incubated for 2 hours in the incubator and then placed in the absorbance plate reader. The absorbance must be measured at 450 nm.

Substance | viability [%]
EFHRWSSYM [NBP-905] | 97.2
FHRWSSYMVHWK [NBP-1206] | 93.6
HRWSSY [NBP-607] | 94.9
HRWSSYMVHWKA [NBP-1207] | 87.4
HRWSSYMVHWKAE [NBP-1307] | 92.5
HWKAEFHR [NBP-801] | 102
HWKAEFHRWSSY [NBP-1201] | 93.1
KAEFH [NBP-503] | 110
KAEFHRWSSYMV [NBP-1203] | 95.5
KAEFHRWSSYMVH [NBP-1303] | 91.2
MVHWKAEFHRWS [NBP-1213] | 90.8
MVHWKAEFHRWSSY [NBP-1413] | 95.2
RWSSY [NBP-508] | 97.6
RWSSYMVHWKA [NBP-1108] | 77.7
SSYMV [NBP-510] | 101
SSYMVHW [NBP-710, SSYMVHW] | 109
SSYMVHWK [NBP-810] | 95.3
SSYMVHWKAEFH [NBP-1210] | 97.5
SSYMVHWKAEFHRW [NBP-1410] | 93.5

same assay, conditions: T30 5 μM + small peptide 0.5 μM; % PC12 cell viability compared to untreated control

Substance | viability [%]
AEFHRWSS [NBP-804] | 108
AEFHRWSSYMV [NBP-1104] | 111
EFHRWSS [NBP-705, EFHRWSS] | 91
EFHRWSSYMVHW [NBP-1205] | 89.4
EFHRWSSYMVHWKA [NBP-1405] | 83.9
FHRWSS [NBP-606] | 103
FHRWSSYMVHWKAE [NBP-1406] | 86.6
HRWSSYM [NBP-707] | 98.5
HRWSSYMVHWK [NBP-1107] | 93.1
HRWSSYMVHWKAEF [NBP-1407] | 90.5
HWKAEF [NBP-601, HWKAEF] | 93.2
HWKAEFHRWSS [NBP-1101] | 91.9
MVHWKA [NBP-613, MVHWKA] | 103
MVHWKAEFHR [NBP-1013] | 85.3
MVHWKAEFHRWSS [NBP-1313] | 89
RWSSYMV [NBP-708, RWSSYMV] | 97.8
RWSSYMVHWKAEFH [NBP-1408] | 93.6
SSYMVHWKAEFHRW [NBP-1410] | 93.5

tested on: PC12 cells; test: Acetylcholinesterase activity assay (AChE release from PC12 cells, Ellman reagent); type: cell-based; details: Aβ 5 μM + small peptide 0.5 μM; % AChE release compared to untreated control
Experimental: AChE activity was measured using the Ellman reagent that measures the presence of thiol groups as a result of AChE activity. Cells were plated the day before the experiment as for the cell viability assay. […] The Ellman reagent was prepared as a mixture of the 3 solutions in a ratio 33(A):3(B):4(C). Absorbance measurements were taken at regular intervals (3, 10, 30 and 60 mins) across experiments at 405 nm.

Substance | AChE [%]
EFHRWSSYM [NBP-905] | 106.42
FHRWSSYMVHWK [NBP-1206] | 96.92
HRWSSY [NBP-607] | 97.53
HRWSSYMVHWKA [NBP-1207] | 94.30
HRWSSYMVHWKAE [NBP-1307] | 94.29
HWKAEFHR [NBP-801] | 108.63
HWKAEFHRWSSY [NBP-1201] | 94.84
KAEFH [NBP-503] | 117.63
KAEFHRWSSYMV [NBP-1203] | 99.63
KAEFHRWSSYMVH [NBP-1303] | 96.73
MVHWKAEFHRWS [NBP-1213] | 93.73
MVHWKAEFHRWSSY [NBP-1413] | 99.85
RWSSY [NBP-508] | 106.06
RWSSYMVHWKA [NBP-1108] | 82.74
SSYMV [NBP-510] | 104.25
SSYMVHW [NBP-710, SSYMVHW] | 108.85
SSYMVHWK [NBP-810] | 96.22
SSYMVHWKAEFH [NBP-1210] | 98.18
SSYMVHWKAEFHRW [NBP-1410] | 93.51

same assay, conditions: T30 5 μM + small peptide 0.5 μM; % AChE release compared to untreated control

Substance | AChE [%]
AEFHRWSS [NBP-804] | 107.69
AEFHRWSSYMV [NBP-1104] | 102.36
EFHRWSS [NBP-705, EFHRWSS] | 94.07
EFHRWSSYMVHW [NBP-1205] | 95.79
EFHRWSSYMVHWKA [NBP-1405] | 91.57
FHRWSS [NBP-606] | 107.88
FHRWSSYMVHWKAE [NBP-1406] | 92.78
HRWSSYM [NBP-707] | 98.35
HRWSSYMVHWK [NBP-1107] | 93.13
HRWSSYMVHWKAEF [NBP-1407] | 94.49
HWKAEF [NBP-601, HWKAEF] | 100.99
HWKAEFHRWSS [NBP-1101] | 91.9
MVHWKA [NBP-613, MVHWKA] | 103.45
MVHWKAEFHR [NBP-1013] | 91.79
MVHWKAEFHRWSS [NBP-1313] | 93.64
RWSSYMV [NBP-708, RWSSYMV] | 97.79
RWSSYMVHWKAEFH [NBP-1408] | 93.64
SSYMVHWKAEFHRW [NBP-1410] | 93.51

tested on: PC12 cells; test: Calcium fluorometry (Fluo-8, acetylcholine-induced calcium influx); type: cell-based; design: Calcium: scale not given here; details: Aβ + small peptide; calcium influx value, control based on acetylcholine alone
Text: A final criterion used to determine active peptides is the amount of calcium influx into PC12 cells caused by the peptide. The calcium influx value can be calculated as described in the methods section. The calcium value corresponds to the result from the experiment when applying T30 or Aβ alone or in conjunction with the small peptides. The control value for these experiments is based on the calcium influx induced by acetylcholine alone. Preferably, the peptide, derivative or analogue thereof has a calcium influx value of less than 120, and more preferably a value of 97-120.
PC12 cells are plated in 200 μl of complete growth medium the day before the experiment in 96 well plates. On the day of the experiment, the Fluo-8 solution (Abcam) is prepared (as per provider protocol). Subsequently, 100 μl of growth medium is removed and 100 μl of Fluo-8 solution is added. Treatments with T30 or Aβ in conjunction with NBP-14 or small peptides are added and incubated for 30 minutes in the incubator and 30 minutes room temperature.
After 1 hour, the plate is placed in the fluorescence plate reader (Fluostar). Before reading the fluorescence, acetylcholine (ACh) 100 μM is prepared and placed in the Fluostar injector. For each well, the reading will be formed by a basal fluorescence followed by acetylcholine injection that will induce an increase of calcium via nicotinic receptors. The effects of the peptides are then evaluated.

Substance | Calcium
EFHRWSSYM [NBP-905] | 194.22
FHRWSSYMVHWK [NBP-1206] | 127.27
HRWSSY [NBP-607] | 168.97
HRWSSYMVHWKA [NBP-1207] | 261.22
HRWSSYMVHWKAE [NBP-1307] | 218.25
HWKAEFHR [NBP-801] | 168.66
HWKAEFHRWSSY [NBP-1201] | 114.35
KAEFH [NBP-503] | 195.67
KAEFHRWSSYMV [NBP-1203] | 192.38
KAEFHRWSSYMVH [NBP-1303] | 106.33
MVHWKAEFHRWS [NBP-1213] | 146.97
MVHWKAEFHRWSSY [NBP-1413] | 125.28
RWSSY [NBP-508] | 120.72
RWSSYMVHWKA [NBP-1108] | 392.11
SSYMV [NBP-510] | 167.56
SSYMVHW [NBP-710, SSYMVHW] | 114.33
SSYMVHWK [NBP-810] | 156.05
SSYMVHWKAEFH [NBP-1210] | 127.83
SSYMVHWKAEFHRW [NBP-1410] | 160.54

same assay, conditions: T30 + small peptide; calcium influx value, control based on acetylcholine alone

Substance | Calcium
AEFHRWSS [NBP-804] | 106.7
AEFHRWSSYMV [NBP-1104] | 119.82
EFHRWSS [NBP-705, EFHRWSS] | 111.98
EFHRWSSYMVHW [NBP-1205] | 132.71
EFHRWSSYMVHWKA [NBP-1405] | 100.59
FHRWSS [NBP-606] | 131.85
FHRWSSYMVHWKAE [NBP-1406] | 101.06
HRWSSYM [NBP-707] | 120.17
HRWSSYMVHWK [NBP-1107] | 95.43
HRWSSYMVHWKAEF [NBP-1407] | 111.71
HWKAEF [NBP-601, HWKAEF] | 118.37
HWKAEFHRWSS [NBP-1101] | 86.58
MVHWKA [NBP-613, MVHWKA] | 102.29
MVHWKAEFHR [NBP-1013] | 181.12
MVHWKAEFHRWSS [NBP-1313] | 118.94
RWSSYMV [NBP-708, RWSSYMV] | 97.04
RWSSYMVHWKAEFH [NBP-1408] | 80.25
SSYMVHWKAEFHRW [NBP-1410] | 120.09

same assay, conditions: dose-dependent experiments, FIGS. 8 and 9

Substance | dose-dependent effect on calcium potentiation against T30
HWKAEF [NBP-601, HWKAEF] | protect against T30 effects
MVHWKA [NBP-613, MVHWKA] | protect against T30 effects
